Measured values as given in US6066628A, “Non-iron metalloporphyrins and methods of use” (Emory University, priority 1998, dated 2000).

Tests used:
[1] = test system: yeasts; experiment: Yeast growth inhibition; format: cell-based
[2] = test system: bacteria; format: cell-based
[3] = test system: K. oxytoca; experiment: Disc diffusion sensitivity test; format: cell-based, Klebsiella oxytoca; settings: K. oxytoca; disc ~50 μg MP
[4] = test system: Y. enterocolitica; experiment: microbe, parasite or virus in culture; format: cell-based
[5] = test system: Ps. aeruginosa; experiment: Disc diffusion sensitivity test; format: cell-based, Pseudomonas aeruginosa; settings: disc ~50 μg MP; also: key: -: resistant; N: not determined
[6] = test system: S. aureus; experiment: Disc diffusion sensitivity test; format: cell-based, Staphylococcus aureus; settings: S. aureus; disc ~50 μg MP
[7] = test system: S. aureus; experiment: Minimal bactericidal concentration; format: cell-based, Staphylococcus aureus; settings: reduces plating efficiency more than 99.9%; minimal exposure to light
Method: Minimal bactericidal concentrations (MBCs) were determined essentially the same way as MICs except that the amount of killing with a particular concentration of porphyrin derivative was determined by plating on solid microbiological media (LB plates or LB+Tween 80). Media were solidified by the incorporation of 1.5% agar (Difco Laboratories). Concentrations of porphyrins that produced 99.9% reduction in bacterial counts were considered bactericidal [Hindler et al. (1994) supra].
MBC were determined by plating bacterial cultures that have been incubate
in the presence of MPs at concentrations higher than MIC. MBC was defined
as a concentration of a particular MP which reduces the plating efficienc
more than 99.9%. Experiments were done with minimal exposure to light
(addition of porphyrins waa done in the presence of artifical light).

[8] = test system: E. faecalis; experiment: Disc diffusion sensitivity test; format: cell-based, Enterococcus faecalis; settings: disc ~50 μg MP; also: key: -: resistant; N: not determined
[9] = test system: M. smegmatis; format: cell-based, Mycobacterium smegmatis
[10] = test system: K. pneumoniae; experiment: Disc diffusion sensitivity test; format: cell-based, Klebsiella pneumoniae; settings: K. pneumoniae; disc ~50 μg MP
[11] = test system: P. mirabills; experiment: Disc diffusion sensitivity test; format: cell-based, Proteus mirabilis; settings: P. mirabilis; disc ~50 μg MP
[12] = test system: M. tuberculosis; format: cell-based, Mycobacterium tuberculosis; settings: pathogenic M. tuberculosis
[13] = test system: Y. enterocolitica; experiment: Disc diffusion sensitivity test; format: cell-based; settings: disc ~50 μg MP
[14] = test system: Streptococcus pyogenes JRS4; format: cell-based; settings: S. pyogenes JRS4 (Table 4)
[15] = test system: M. smegmatis; experiment: Minimal bactericidal concentration; format: cell-based, Mycobacterium smegmatis; settings: reduces plating efficiency more than 99.9%; minimal exposure to light
[16] = test system: E. coli; experiment: Disc diffusion sensitivity test; format: cell-based, Escherichia coli; settings: E. coli; disc ~50 μg MP
[17] = test system: F. menigosepticum; experiment: Disc diffusion sensitivity test; format: cell-based, Flavobacterium meningosepticum; settings: F. meningosepticum; disc ~50 μg MP
[18] = test system: S. pyogenes A; experiment: Disc diffusion sensitivity test; format: cell-based, Streptococcus pyogenes; settings: disc ~50 μg MP
[19] = test system: S. aureus; format: cell-based, Staphylococcus aureus; settings: methicillin-resistant S. aureus IR219; Nutrient broth (Table 2)
[20] = test system: M tuber. H37Rv; experiment: Disc diffusion sensitivity test; format: cell-based, Mycobacterium tuberculosis; settings: disc ~50 μg MP
[21] = test system: M tuber. H37Pa; experiment: Disc diffusion sensitivity test; format: cell-based, Mycobacterium tuberculosis; settings: disc ~50 μg MP
[22] = test system: M. avium; settings: M. avium
[23] = test system: Y. enterocolitica; experiment: Minimal bactericidal concentration; format: cell-based; settings: reduces plating efficiency more than 99.9%; minimal exposure to light
[24] = test system: E. aerogenes; experiment: Disc diffusion sensitivity test; format: cell-based, Enterobacter aerogenes; settings: E. aerogenes; disc ~50 μg MP
[25] = test system: C. freundii; experiment: Disc diffusion sensitivity test; format: cell-based, Citrobacter freundii; settings: C. freundii; disc ~50 μg MP
[26] = test system: Candida krusei; experiment: MIC 80 microdilution, clinical yeast isolates; format: cell-based
[27] = test system: Candida pillosus; experiment: MIC 80 microdilution, clinical yeast isolates; format: cell-based
[28] = test system: Candida glabrata; experiment: MIC 80 microdilution, clinical yeast isolates; format: cell-based
Method: (§1) MICs of Ga-UPI against selected clinical yeast isolates. Growth was
(§2) scored after 24 and 48 hours of incubation.

[29] = test system: Cryptococcus neoformans; experiment: MIC 80 microdilution, clinical yeast isolates; format: cell-based
Method: as §1, §2

[30] = test system: Candida tropicalis; experiment: MIC 80 microdilution, clinical yeast isolates; format: cell-based
Method: as §1, §2

[31] = test system: Candida albicans; experiment: MIC 80 microdilution, clinical yeast isolates; format: cell-based
Method: as §1, §2

Question: Which results are given for `O=C(O)CCC1=C(CC(=O)O)C2=Cc3c(CC(=O)O)c(CCC(=O)O)c4[n]3[Ga]([Cl])[n]3c(c(CCC(=O)O)c(CC(=O)O)c3=CC3=NC(=C4)C(CC(=O)O)=C3CCC(=O)O)=CC1=N2` [Ga-UPIII, Ga-uroporphyrin III]?
Answer: inhibition of growth of yeast [1]: able to inhibit growth of yeast; antibacterial activity [2]: seriously limited in their antibacterial activities

Question: Which results are given for “Indium (III) protoporphyrin IX chloride [In-PPIX]”?
Answer: diameter (mm) of the inhibition zone [3]: 9 mm; Minimal inhibitory concentration (MIC) [4]: 0.2; antibacterial activity [4]: inhibitory; diameter (mm) of the inhibition zone [5]: -; diameter (mm) of the inhibition zone [6]: 15 mm; Minimal bactericidal concentration (MBC) [7]: > 13; diameter (mm) of the inhibition zone [8]: -; antibacterial activity ([9]; M. smegmatis): inhibitory; Minimal inhibitory concentration (MIC) ([9]; M. smegmatis LR222, LB + Tween 80 (Table 2)): 0.4 µg/mL; diameter (mm) of the inhibition zone [10]: 9 mm; diameter (mm) of the inhibition zone [11]: 9 mm; sensitivity (preliminary experiments) [12]: sensitive; diameter (mm) of the inhibition zone [13]: 12 mm; MIC [14]: 0.1 µg/mL; Minimal bactericidal concentration (MBC) [15]: 10; diameter (mm) of the inhibition zone [16]: -; diameter (mm) of the inhibition zone [17]: -; diameter (mm) of the inhibition zone [18]: 13 mm; Minimal inhibitory concentration (MIC) [19]: 1.6 µg/mL; diameter (mm) of the inhibition zone [20]: -; diameter (mm) of the inhibition zone [21]: 17 mm; sensitivity (preliminary experiments) [22]: sensitive; Minimal bactericidal concentration (MBC) [23]: > 13; diameter (mm) of the inhibition zone [24]: 9 mm; diameter (mm) of the inhibition zone [25]: 9 mm

Question: Which results are given for `O=C(O)CCC1=C(CC(=O)O)C2=NC1=Cc1c(CC(=O)O)c(CCC(=O)O)c3[n]1[Ga]([Cl])[n]1c(c(CCC(=O)O)c(CC(=O)O)c1=CC1=NC(=C3)C(CC(=O)O)=C1CCC(=O)O)=C2` [Ga-UPI, Ga-uroporphyrin I]?
Answer: inhibition of growth of yeast [1]: able to inhibit growth of yeast; Minimal bactericidal concentration (MBC) [7]: 10; MIC 80 ([26]; 97-058, 24 hours): 1 µg/mL; MIC 80 ([26]; 97-058, 48 hours): 4 µg/mL; MIC 80 ([26]; 97-059, 24 hours): 2 µg/mL; MIC 80 ([26]; 97-059, 48 hours): 8 µg/mL; MIC 80 ([26]; ATCC-6258, 24 hours): 1 µg/mL; MIC 80 ([26]; ATCC-6258, 48 hours): 2 µg/mL; Minimal bactericidal concentration (MBC) [15]: 10; antibacterial activity [2]: seriously limited in their antibacterial activities; MIC 80 ([27]; 97-056, 24 hours): 1 µg/mL; MIC 80 ([27]; 97-056, 48 hours): 2 µg/mL; MIC 80 ([27]; 97-057, 24 hours): 2 µg/mL; MIC 80 ([27]; 97-057, 48 hours): 8 µg/mL; Minimal bactericidal concentration (MBC) [23]: 10; MIC 80 ([28]; 97-049, 24 hours): 8 µg/mL; MIC 80 ([28]; 97-049, 48 hours): 32 µg/mL; MIC 80 ([28]; 97-050, 24 hours): 8 µg/mL; MIC 80 ([28]; 97-050, 48 hours): 16 µg/mL; MIC 80 ([28]; 97-051, 24 hours): 8 µg/mL; MIC 80 ([28]; 97-051, 48 hours): 32 µg/mL; MIC 80 ([28]; 97-052, 24 hours): 8 µg/mL; MIC 80 ([28]; 97-052, 48 hours): 32 µg/mL; MIC 80 ([28]; 97-053, 24 hours): 8 µg/mL; MIC 80 ([28]; 97-053, 48 hours): 16 µg/mL; MIC 80 ([29]; 97-044, 24 hours): 16 µg/mL; MIC 80 ([29]; 97-044, 48 hours): 16 µg/mL; MIC 80 ([29]; 97-045, 24 hours): 16 µg/mL; MIC 80 ([29]; 97-045, 48 hours): 32 µg/mL; MIC 80 ([29]; 97-046, 24 hours): 16 µg/mL; MIC 80 ([29]; 97-046, 48 hours): 16 µg/mL; MIC 80 ([29]; 97-047, 24 hours): 8 µg/mL; MIC 80 ([29]; 97-047, 48 hours): 16 µg/mL; MIC 80 ([29]; 97-048, 24 hours): 16 µg/mL; MIC 80 ([29]; 97-048, 48 hours): 16 µg/mL; MIC 80 ([30]; 97-054, 24 hours): 16 µg/mL; MIC 80 ([30]; 97-054, 48 hours): 32 µg/mL; MIC 80 ([30]; 97-055, 24 hours): 8 µg/mL; MIC 80 ([30]; 97-055, 48 hours): 16 µg/mL; MIC 80 ([31]; 97-010, 24 hours): 2 µg/mL; MIC 80 ([31]; 97-010, 48 hours): 8 µg/mL; MIC 80 ([31]; 97-012, 24 hours): 2 µg/mL; MIC 80 ([31]; 97-012, 48 hours): 8 µg/mL; MIC 80 ([31]; 97-014, 24 hours): 2 µg/mL; MIC 80 ([31]; 97-014, 48 hours): 8 µg/mL; MIC 80 ([31]; 97-015, 24 hours): 2 µg/mL; MIC 80 ([31]; 97-015, 48 hours): 8 µg/mL; MIC 80 ([31]; 97-031, 24 hours): 2 µg/mL; MIC 80 ([31]; 97-031, 48 hours): 16 µg/mL

Question: What does the source list for `CC1=C(CCC(=O)O)C2=Cc3c(C)c(CCC(=O)O)c4[n]3[Ga]([Cl])[n]3c(c(C)c(CCC(=O)O)c3=CC1=N2)=CC1=NC(=C4)C(C)=C1CCC(=O)O` [Ga-COPI, Ga-coproporphyrin I]?
Answer: inhibition of growth of yeast [1]: able to inhibit growth of yeast; antibacterial activity [2]: seriously limited in their antibacterial activities
